Assay results reported in patent US5274121A, “N-methyl-N-[4-(1-pyrrolidinyl)-2-butynyl]amide congeners as muscarinic agents” (priority 1992, dated 1993).
Like-named read-outs stand apart in the source and are kept apart here.

Experiments:
[1] = molecular target: T1, muscarinic receptors, SK-N-SH cell membranes (m4 AChR) (Homo sapiens, UniProt P20309); assay: Inhibition of [3H]-NMS binding to membranes from SK-N-SH cells; details: for inhibition at 50 µM: read-out: binding (% inhibition of 3H-NMS binding); for inhibition at 100 µM: conc. of compounds = 100 μM
T1 construct: membranes from SK-N-SH cells; endogenous in cells; host or cells: SK-N-SH human neuroblastoma cells (crude membrane fraction)
Description: (§1) Compounds of the present invention were screened for their biological activity. Assay systems using SK-N-SH human neuroblastoma cells which express only m4 -AChRs coupled to PI turnover, and NG108-15 neuroblastoma x glioma cells which express only m3 AChRs coupled to adenylate cyclase inhibition were used.
(§2) Compounds of the present invention were also screened for their relative binding affinities. Assay systems which measured the inhibition of ^3 H-N-methylscopolamine (^3 H-NMS) binding to membranes from NG108-15 cells and membranes from SK-N-SH cells were used.
(§3) Inhibition of [^3 H]-NMS binding
(§4) Cells were grown to confluence, harvested, and a crude membrane fraction was obtained. […] The total volume was 1 mL. The incubation was terminated by rapid filtration over GF/B filters using a Brandel cell harvester. The filters were washed three times with ice-cold 0.9% NaCl, equilibrated in scintillation counting fluid and counted on a Beckman LS 5801 liquid scintillation counter at 47% efficiency. Non-specific binding was determined by coincubation with 1 μM atropine, and amounted to less than 15% of total counts. It was routinely subtracted from the total counts.

[2] = molecular target: T2, muscarinic receptors, NG108-15 cell membranes (m3 AChR) (Mus musculus, UniProt P32211); assay: Inhibition of [3H]-NMS binding to membranes from NG108-15 cells; details: for inhibition at 50 µM: read-out: binding (% inhibition of 3H-NMS binding); for inhibition at 100 µM: conc. of compounds = 100 μM
T2 construct: membranes from NG108-15 cells; endogenous in cells; host or cells: NG108-15 neuroblastoma x glioma hybrid cells (crude membrane fraction)
T2 sequence (P32211 1-479): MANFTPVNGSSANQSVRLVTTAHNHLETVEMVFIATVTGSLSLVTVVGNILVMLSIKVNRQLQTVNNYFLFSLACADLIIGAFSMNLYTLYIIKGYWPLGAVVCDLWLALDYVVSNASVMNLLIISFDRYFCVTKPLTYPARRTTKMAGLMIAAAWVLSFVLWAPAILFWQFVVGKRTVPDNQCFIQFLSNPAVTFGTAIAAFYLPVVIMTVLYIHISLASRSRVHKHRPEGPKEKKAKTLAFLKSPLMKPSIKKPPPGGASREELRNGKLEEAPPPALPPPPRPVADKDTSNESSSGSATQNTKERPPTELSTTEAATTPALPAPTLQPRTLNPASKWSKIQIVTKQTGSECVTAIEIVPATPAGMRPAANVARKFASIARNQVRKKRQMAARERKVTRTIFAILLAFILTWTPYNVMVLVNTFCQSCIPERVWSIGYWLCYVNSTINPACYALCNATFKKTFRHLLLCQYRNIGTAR
Description: as §1, §2, §3, §4

[3] = tested on: SK-N-SH human neuroblastoma cells (m4 AChR); assay: Stimulation of PI turnover in SK-N-SH cells; format: cell-based; details: Homo sapiens, 0.5 h
Method: (§5) Compounds of the present invention were tested for their binding affinities and activation of second messengers in selective muscarinic cholinergic receptor systems. It is believed that m1 -, m4 -, and m5 AChRs couple exclusively to PI turnover, whereas m2 - and m3 -AChRs couple only to adenylate cyclase inhibition.
as §1
Stimulation of PI turnover in SK-N-SH cells
Cells were plated into 24-well plates at 100,000 cells per well. After 24 hours, they were labeled overnight with 2 μCi per well of [^3 H]-myo-inositol (American Radiolabeled Chemicals, Inc., St. Louis, Mo.; 15 Ci/mM; 2 μL of stock per mL of media). The cells were then rinsed twice with 10 mM LiCl in DMEM-Hepes and the cells were incubated in this solution for 5 min at 37° C. The indicated compound was then added at a final concentration of 100 μM and the cells were incubated for another 30 min at 37° C. The reaction was stopped by aspirating the solution and adding cold methanol to the cells. After transferring the cells to a glass tube and sonicating briefly, chloroform and water were added to make a two-phase system. The upper aqueous phase was applied to 0.6 mL anion exchange columns (AG X8, Bio-Rad) and the columns were washed and total inositol phosphates were eluted with 1M ammonium formate and 0.1M formic acid.

[4] = tested on: NG108-15 neuroblastoma x glioma cells (m3 AChR); assay: Inhibition of PGE1-stimulated cAMP levels in NG108-15 cells; format: cell-based; details: read-out: cAMP Inhib (relative to OXO-M)
[5] = tested on: NG108-15 neuroblastoma x glioma cells (m3 AChR); assay: as above; format: cell-based; details: for inhibition at 100 µM: NG108-15, NG108-15 cells, read-out: cAMP Inhib; for inhibition at 100 µM / cAMP Inhib: relative to control with no compounds added, conc. of compounds = 100 μM; for cAMP Inhib: NG108-15 cells, 100 µM
Method: as §5, §1
Inhibition of PGE1 -stimulated cAMP levels in NG108-15 cells
Cells were plated in 24-well plates and were grown to 90% confluence. The growth media was then replaced with a solution of 1 mM IBMX in DMEM-Hepes (0.5 mL per well) and the cells were incubated for 10 min at 37° C. Agonists were then added at a final concentration of 100 μM, along with PGE1 (final conc, 5 μM), and the cells were incubated for a further 15 min at 37° C. The reaction Was terminated by aspirating the solution and adding 0.5 mL of 0.1N HCl. In order to extract the cAMP from the cells, they were incubated in 0.1 N HCl for 30 min at room temperature. An aliquot (35 50 μL) was removed, lyophilized, and assayed for cAMP by radioimmunoassay.

muscarinic receptors = details: literature; cited from earlier work
M2 AChRs = details: M2 AChR; cited from earlier work
M1 AChRs = details: M1 AChR; cited from earlier work
m4 AChR = details: cited from earlier work
m5 AChR = details: cited from earlier work
m2 AChR = details: cited from earlier work
m3 AChR = details: cited from earlier work
[6] = SK-N-SH cells, conc. of compound = 50 μM
[7] = NG108-15 cells, conc. of compound = 50 μM
[8] = SK-N-SH cells, data relative to OXO-M, conc. of compounds = 100 μM, read-out: Pi turnover (relative to OXO-M)
[9] = SK-N-SH cells, percent relative to the activity of OXO-M, conc. of compounds = 100 μM, read-out: Pi turnover
[10] = 0.25 h, NG108-15 cells, data relative to OXO-M, conc. of compounds = 50 μM

T1 sequence (P20309 whole entry): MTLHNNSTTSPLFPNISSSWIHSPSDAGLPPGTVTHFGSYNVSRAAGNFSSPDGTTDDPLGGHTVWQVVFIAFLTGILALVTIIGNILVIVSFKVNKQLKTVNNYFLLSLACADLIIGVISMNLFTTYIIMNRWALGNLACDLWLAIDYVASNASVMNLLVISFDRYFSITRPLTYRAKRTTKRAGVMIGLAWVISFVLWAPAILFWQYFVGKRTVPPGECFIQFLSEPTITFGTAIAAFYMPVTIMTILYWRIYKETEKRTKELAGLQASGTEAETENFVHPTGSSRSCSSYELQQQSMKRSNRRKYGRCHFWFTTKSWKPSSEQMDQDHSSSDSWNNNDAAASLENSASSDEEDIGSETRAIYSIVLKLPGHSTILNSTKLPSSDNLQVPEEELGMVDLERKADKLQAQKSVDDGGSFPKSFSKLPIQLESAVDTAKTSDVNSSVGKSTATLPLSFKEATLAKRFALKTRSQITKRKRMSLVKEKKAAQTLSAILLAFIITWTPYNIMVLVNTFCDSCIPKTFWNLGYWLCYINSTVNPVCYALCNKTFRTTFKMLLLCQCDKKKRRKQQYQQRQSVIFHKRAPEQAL

| SMILES | inhibition at 50 µM [1, 6] [%] | inhibition at 50 µM [2, 7] [%] | Emax at 50 µM [4, 10] [%] | further results |
| --- | --- | --- | --- | --- |
| CN(CC#CCN1CCCC1)C(=O)Oc1ccc(Cl)cc1 [Compound 027] |  |  |  | inhibition at 50 µM [1]: 62 ± 1%; inhibition at 50 µM [2]: 27 ± 4%; Emax at 100 µM ([3]; SK-N-SH, read-out: Pi turnover (relative to OXO-M)): 1 ± 1%; Emax at 50 µM ([4]; NG108-15, 0.25 h): 40 ± 10% |
| C[N+](C)(C)CC#CCN1CCCC1=O [OXO-M, oxotremorine-M, reference compound] | 49 ± 12 | 74 ± 3 | 100 | inhibition at 100 µM ([1]; SK-N-SH cells): 52.1 ± 1.2%; inhibition at 100 µM [5]: 64.1 ± 1.9%; cAMP Inhib [5]: 65±3%; inhibition at 100 µM ([2]; NG108-15 cells): 96.2 ± 2.1%; Emax at 100 µM [3, 8]: 100%; Emax at 100 µM [3, 9]: 100% |
| COC(=O)CCC(=O)N(C)CC#CCN1CCCC1 [Compound 009, N-Methyl-N-[4-(1-pyrrolidinyl)-2-butynyl]-3-methoxycarbonylpropanamide] | 8 ± 1 | 5 ± 3 | 10 ± 10 |  |
| CN(CC#CCN1CCCC1)C(=O)c1cccc(Cl)c1 [Compound 026] | 27 ± 10 | 17 ± 4 | 30 ± 10 | Emax at 100 µM [3, 8]: 1 ± 1% |
| O=C1CCCN1CC#CCN1CCCC1 [oxotremorine] |  |  |  | muscarinic activity, in words (muscarinic receptors): potent and moderately selective central muscarinic agonist |
| CN(CC#CCN1CCCC1)C(=O)c1ccccc1 [Compound 032] | 20 ± 5 | 7 ± 4 | 50 ± 20 | Emax at 100 µM [3, 8]: 4 ± 2% |
| COc1ccc(NC(=O)N(C)CC#CCN2CCCC2)cc1 [Compound 028] | 61 ± 12 | 24 ± 6 | 20 ± 10 |  |
| CN(CC#CCN1CCCC1)C(=O)CCC(=O)NCCN [Compound 019, N-Methyl-N-[4-(1-pyrrolidinyl)-2-butynyl]-2-[4-(2-aminoethyl)carboxamido]propanamide] | 25 ± 5 | 14 ± 2 | 10 ± 10 |  |
| CC(=O)N(C)C(C)C#CCN1CCCC1 (stereo not drawn) [BM 5, reference compound] | 95 ± 1 | 91 ± 1 |  | inhibition at 100 µM ([1]; SK-N-SH cells): 99 ± 1%; muscarinic activity, in words (muscarinic receptors): potent muscarinic agent with presynaptic antagonist and postsynaptic agonist activity; inhibition at 100 µM ([2]; NG108-15 cells): 97 ± 2% |
| CN1CCN(CC(=O)N2c3ccccc3C(=O)Nc3cccnc32)CC1 [pirenzepine] |  |  |  | affinity for pirenzepine (M2 AChRs): low-affinity; affinity for pirenzepine (M1 AChRs): high-affinity; affinity for pirenzepine (m4 AChR): high affinity; affinity for pirenzepine (m5 AChR): intermediate affinity; affinity for pirenzepine (m2 AChR): low affinity; affinity for pirenzepine (m3 AChR): intermediate affinity |
| CN(CC#CCN1CCCC1)CCC1OCCO1 [Compound 031] | 20 ± 3 | 7 ± 5 | 50 ± 10 |  |
| CC(=O)NCCNC(=O)CCC(=O)N(C)CC#CCN1CCCC1 [Compound 023] | 6 ± 5 | 6 ± 4 | 20 ± 10 | Emax at 100 µM [3, 8]: 6 ± 4% |
| CN(CC#CCN1CCCC1)C(=O)CCC(=O)O [Compound 008, N-Methyl-N-[4-(1-pyrrolidinyl)-2-butynyl]-3-carboxypropanamide] | 7 ± 2 | 1 ± 1 | 10 ± 10 |  |
| CC(=O)N(C)CC#CCN1CCCC1 [UH 5, reference compound] |  |  |  | muscarinic activity, in words (muscarinic receptors): maintains agonist activity and is nearly equi-potent to oxotremorine; agonist selectivity, in words ([5]; NG108-15 (cAMP) versus SK-N-SH (PI turnover)): acted as an agonist in both systems; inhibition at 100 µM [5]: 63.2 ± 6%; cAMP Inhib [5]: 63%; Emax at 100 µM [3, 9]: 54% |
| CN(CC#CCN1CCCC1)CC1OCCO1 [Compound 029, N-(2,5-dioxolylmethyl)-N-methyl-4-(1-pyrrolidinyl)-2-butynamine] | 19 ± 5 | 5 ± 5 | 40 ± 10 |  |
